{"source": "patent US20130217913A1", "about": "“Antimalarial Drug Comprising Alaremycin or Derivative Thereof as Active Ingredient” (SBI Pharmaceuticals Co., Ltd., priority 2010, published 2013)", "key": {"[1]": {"system": "human malaria parasites", "test": "[3H]-hypoxanthine incorporation (de novo nucleic acid synthesis) in infected human red blood cells, Example 2", "assay_type": "cell-based", "conditions": "for specific radioactivity incorporation, [^3H]-hypoxanthine: 25 hours, value at 0.1 μM set to 100%", "procedure": "Human red blood cells infected at an infection rate of 2% with ring-stage human malaria parasites were cultured in RPMI1640 medium containing AlbuMAX-II at 37° C. and a hematocrit of 4%. 50 μL of a medium containing Alaremycin or any of the other compounds shown in Table 2 was mixed with 50 μL of the culture to the indicated concentrations, to which [^3H]-hypoxanthine was then added, followed by culture in a 96-well plate at 37° C. The repeat number was 2 for each concentration. After 25 hours, they were examined and the amount β-rays released from [^3H]-hypoxanthine incorporated into a nucleic acid with de novo nucleic acid synthesis was measured using a scintillation counter. The averages of the measured values were calculated, and the specific radioactivity incorporation was calculated by setting the measured value in the experiment for which each compound is contained at a final concentration of 0.1 μM, to 100%."}, "[2]": {"system": "human malaria parasites", "test": "[14C]-isoleucine incorporation (de novo protein synthesis) in infected human red blood cells, Example 1", "assay_type": "cell-based", "conditions": "25 hours, value at 0.01 μM set to 100%", "procedure": "(§1) Human red blood cells infected at an infection rate of 2% with ring-stage human malaria parasites were cultured in RPMI1640 medium containing AlbuMAX-II (Invitrogen) at 37° C. and a hematocrit of 4%. 50 μL of the culture was mixed with 50 μL of a medium containing Alaremycin to the concentrations shown in Table 1, to which [^3H]-hypoxanthine and [^14C]-isoleucine isoleucine were then added, followed by culture in a 96-well plate at 37° C. The repeat number was 2 for each concentration. After 25 hours, they were examined and the amount of (3-rays released from [^3H]-hypoxanthine incorporated into a nucleic acid with de novo nucleic acid synthesis or from [^14C]-isoleucine incorporated into a protein with de novo protein synthesis was measured using a scintillation counter. The averages of the measured values were calculated, and the specific radioactivity incorporation was calculated by setting the measured value in the experiment for which Alaremycin was contained at a final concentration of 0.01 μM, to 100%. The results are shown in Table 1."}, "[3]": {"target": "porphobilinogen synthase (PBGS) (Pseudomonas aeruginosa, UniProt Q59643)", "sequence (Q59643 whole entry)": "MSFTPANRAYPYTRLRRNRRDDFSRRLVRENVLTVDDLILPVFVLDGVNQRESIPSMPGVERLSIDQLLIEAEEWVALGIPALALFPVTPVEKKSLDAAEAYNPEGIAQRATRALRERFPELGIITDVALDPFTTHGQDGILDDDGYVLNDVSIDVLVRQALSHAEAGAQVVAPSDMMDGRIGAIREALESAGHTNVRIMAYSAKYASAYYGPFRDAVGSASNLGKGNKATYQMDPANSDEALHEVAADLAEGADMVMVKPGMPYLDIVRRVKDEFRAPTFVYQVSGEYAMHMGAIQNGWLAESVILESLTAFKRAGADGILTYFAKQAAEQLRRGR", "conditions": "Non-patent Document 3; cited from earlier work"}, "[4]": {"system": "Pseudomonas aeruginosa", "conditions": "Non-patent Document 3; cited from earlier work"}, "[5]": {"system": "Escherichia coli", "conditions": "Non-patent Documents 2, 3; cited from earlier work"}, "[6]": {"system": "human malaria parasites", "test": "[3H]-hypoxanthine incorporation (de novo nucleic acid synthesis) in infected human red blood cells, Example 1", "assay_type": "cell-based", "conditions": "for Specific Radioactivity Incorporation (%) [^3H]-Hypoxanthine: 25 hours, value at 0.01 μM set to 100%", "procedure": "as §1"}}, "data": [{"smiles": "NCC(=O)CCC(=O)O", "note": "[5-Aminolevulinic acid, 5-aminolevulinic acid]", "values": [{"measurement": "specific radioactivity incorporation, [^3H]-hypoxanthine", "setting": "[1]; 0.1 μM", "result": 100, "unit": "%"}, {"measurement": "specific radioactivity incorporation, [^3H]-hypoxanthine", "setting": "[1]; 1 μM", "result": 102.7, "unit": "%"}, {"measurement": "specific radioactivity incorporation, [^3H]-hypoxanthine", "setting": "[1]; 5 μM", "result": 108.5, "unit": "%"}, {"measurement": "specific radioactivity incorporation, [^3H]-hypoxanthine", "setting": "[1]; 10 μM", "result": 104.4, "unit": "%"}, {"measurement": "specific radioactivity incorporation, [^3H]-hypoxanthine", "setting": "[1]; 50 μM", "result": 97.3, "unit": "%"}, {"measurement": "specific radioactivity incorporation, [^3H]-hypoxanthine", "setting": "[1]; 100 μM", "result": 101.2, "unit": "%"}]}, {"smiles": "CC(=O)CC(=O)CCC(=O)O", "note": "[Succinylacetone, 4,6-dioxoheptanoic acid]", "values": [{"measurement": "specific radioactivity incorporation, [^3H]-hypoxanthine", "setting": "[1]; 0.1 μM", "result": 100, "unit": "%"}, {"measurement": "specific radioactivity incorporation, [^3H]-hypoxanthine", "setting": "[1]; 1 μM", "result": 94.4, "unit": "%"}, {"measurement": "specific radioactivity incorporation, [^3H]-hypoxanthine", "setting": "[1]; 5 μM", "result": 94.3, "unit": "%"}, {"measurement": "specific radioactivity incorporation, [^3H]-hypoxanthine", "setting": "[1]; 10 μM", "result": 94.7, "unit": "%"}, {"measurement": "specific radioactivity incorporation, [^3H]-hypoxanthine", "setting": "[1]; 50 μM", "result": 99.8, "unit": "%"}, {"measurement": "specific radioactivity incorporation, [^3H]-hypoxanthine", "setting": "[1]; 100 μM", "result": 90.9, "unit": "%"}, {"measurement": "specific radioactivity incorporation, [^3H]-hypoxanthine", "setting": "[1]; 500 μM", "result": 94.4, "unit": "%"}, {"measurement": "specific radioactivity incorporation, [^3H]-hypoxanthine", "setting": "[1]; 1000 μM", "result": 88.6, "unit": "%"}, {"measurement": "specific radioactivity incorporation, [^3H]-hypoxanthine", "setting": "[1]; 5000 μM", "result": 58.8, "unit": "%"}, {"measurement": "specific radioactivity incorporation, [^3H]-hypoxanthine", "setting": "[1]; 10000 μM", "result": 21.4, "unit": "%"}]}, {"smiles": "C=C(NC(C)=O)C(=O)CCC(=O)O", "note": "[Alaremycin, 5-acetamido-4-oxo-5-hexenoic acid]", "values": [{"measurement": "Specific Radioactivity Incorporation (%) [^14C]-Isoleucine", "setting": "[2]; 0.01 μM", "result": 100, "unit": "%"}, {"measurement": "Specific Radioactivity Incorporation (%) [^14C]-Isoleucine", "setting": "[2]; 0.1 μM", "result": 93.3, "unit": "%"}, {"measurement": "Specific Radioactivity Incorporation (%) [^14C]-Isoleucine", "setting": "[2]; 1 μM", "result": 88.8, "unit": "%"}, {"measurement": "Specific Radioactivity Incorporation (%) [^14C]-Isoleucine", "setting": "[2]; 5 μM", "result": 84.7, "unit": "%"}, {"measurement": "Specific Radioactivity Incorporation (%) [^14C]-Isoleucine", "setting": "[2]; 10 μM", "result": 64.8, "unit": "%"}, {"measurement": "Specific Radioactivity Incorporation (%) [^14C]-Isoleucine", "setting": "[2]; 50 μM", "result": 3.6, "unit": "%"}, {"measurement": "Specific Radioactivity Incorporation (%) [^14C]-Isoleucine", "setting": "[2]; 100 μM", "result": 2.1, "unit": "%"}, {"measurement": "Specific Radioactivity Incorporation (%) [^14C]-Isoleucine", "setting": "[2]; 200 μM", "result": 1, "unit": "%"}, {"measurement": "inhibition of porphobilinogen synthase (in words)", "setting": "[3]", "result": "act as an inhibitor of porphobilinogen synthase (PBGS)"}, {"measurement": "specific radioactivity incorporation, [^3H]-hypoxanthine", "setting": "[1]; 0.1 μM", "result": 100, "unit": "%"}, {"measurement": "specific radioactivity incorporation, [^3H]-hypoxanthine", "setting": "[1]; 1 μM", "result": 100.5, "unit": "%"}, {"measurement": "specific radioactivity incorporation, [^3H]-hypoxanthine", "setting": "[1]; 5 μM", "result": 90.7, "unit": "%"}, {"measurement": "specific radioactivity incorporation, [^3H]-hypoxanthine", "setting": "[1]; 10 μM", "result": 83.8, "unit": "%"}, {"measurement": "specific radioactivity incorporation, [^3H]-hypoxanthine", "setting": "[1]; 50 μM", "result": 2.8, "unit": "%"}, {"measurement": "specific radioactivity incorporation, [^3H]-hypoxanthine", "setting": "[1]; 100 μM", "result": 1.6, "unit": "%"}, {"measurement": "inhibition of nucleic acid metabolism in human malaria parasites (in words)", "setting": "[1]; compared to succinylacetone and 4,7-dioxosebacic acid", "result": "sufficiently inhibit nucleic acid metabolism in human malaria parasites in a significantly low concentration"}, {"measurement": "antibacterial activity (in words)", "setting": "[4]", "result": "has antibacterial activities"}, {"measurement": "antibacterial activity (in words)", "setting": "[5]", "result": "has antibacterial activities"}, {"measurement": "Specific Radioactivity Incorporation (%) [^3H]-Hypoxanthine", "setting": "[6]; 0.01 μM", "result": 100, "unit": "%"}, {"measurement": "Specific Radioactivity Incorporation (%) [^3H]-Hypoxanthine", "setting": "[6]; 0.1 μM", "result": 100.4, "unit": "%"}, {"measurement": "Specific Radioactivity Incorporation (%) [^3H]-Hypoxanthine", "setting": "[6]; 1 μM", "result": 92.8, "unit": "%"}, {"measurement": "Specific Radioactivity Incorporation (%) [^3H]-Hypoxanthine", "setting": "[6]; 5 μM", "result": 84.8, "unit": "%"}, {"measurement": "Specific Radioactivity Incorporation (%) [^3H]-Hypoxanthine", "setting": "[6]; 10 μM", "result": 66.8, "unit": "%"}, {"measurement": "Specific Radioactivity Incorporation (%) [^3H]-Hypoxanthine", "setting": "[6]; 50 μM", "result": 2.8, "unit": "%"}, {"measurement": "Specific Radioactivity Incorporation (%) [^3H]-Hypoxanthine", "setting": "[6]; 100 μM", "result": 1.5, "unit": "%"}, {"measurement": "Specific Radioactivity Incorporation (%) [^3H]-Hypoxanthine", "setting": "[6]; 200 μM", "result": 1.1, "unit": "%"}, {"measurement": "inhibition at 15 µM", "setting": "[6]; Homo sapiens, Erythrocyte, 15 μM, rough statement for both [^3H]-hypoxanthine and [^14C]-isoleucine, read-out: inhibition of radioactivity incorporation", "result": "~50", "unit": "%"}, {"measurement": "inhibition at 50 µM", "setting": "[6]; Homo sapiens, Erythrocyte, 50 μM, rough statement for both [^3H]-hypoxanthine and [^14C]-isoleucine, read-out: inhibition of radioactivity incorporation", "result": "≥ 95", "unit": "%"}, {"measurement": "inhibition of nucleic acid metabolism and protein synthesis in human malaria parasites (in words)", "setting": "[6]; measured as in Example 1, both nucleic acid and protein synthesis", "result": "inhibited by Alaremycin in a concentration-dependent manner"}]}, {"smiles": "O=C(O)CCC(=O)CCC(=O)CCC(=O)O", "note": "[4,7-Dioxosebacic acid, 4,7-dioxosebacic acid]", "values": [{"measurement": "specific radioactivity incorporation, [^3H]-hypoxanthine", "setting": "[1]; 0.1 μM", "result": 100, "unit": "%"}, {"measurement": "specific radioactivity incorporation, [^3H]-hypoxanthine", "setting": "[1]; 1 μM", "result": 110.3, "unit": "%"}, {"measurement": "specific radioactivity incorporation, [^3H]-hypoxanthine", "setting": "[1]; 5 μM", "result": 106.9, "unit": "%"}, {"measurement": "specific radioactivity incorporation, [^3H]-hypoxanthine", "setting": "[1]; 10 μM", "result": 103.4, "unit": "%"}, {"measurement": "specific radioactivity incorporation, [^3H]-hypoxanthine", "setting": "[1]; 50 μM", "result": 108, "unit": "%"}, {"measurement": "specific radioactivity incorporation, [^3H]-hypoxanthine", "setting": "[1]; 100 μM", "result": 102.1, "unit": "%"}, {"measurement": "specific radioactivity incorporation, [^3H]-hypoxanthine", "setting": "[1]; 500 μM", "result": 106.8, "unit": "%"}, {"measurement": "specific radioactivity incorporation, [^3H]-hypoxanthine", "setting": "[1]; 1000 μM", "result": 100.1, "unit": "%"}, {"measurement": "specific radioactivity incorporation, [^3H]-hypoxanthine", "setting": "[1]; 5000 μM", "result": 100, "unit": "%"}, {"measurement": "specific radioactivity incorporation, [^3H]-hypoxanthine", "setting": "[1]; 10000 μM", "result": 97.1, "unit": "%"}]}]}
